Measured values from patent publication EP0512684B1, “Synergistic herbicidal compositions” (DOWELANCO, priority 1991, dated 1992).

How the values were obtained:
Type in all cases: in vivo
Lamium purpureum [1] = experiment: Weed control by reduction in fresh weight (Example IV)
Description: (§1) In all Examples, the percent kill and control is measured on a scale of 0 percent = no kill and control 100 percent = complete kill and control. Expected control is calculated as 100 -((% control by Compound A) x (% control by Compound B))/(100) [formula] where % control= 100-actual control according to the technique described in Colby, "Calculating Synergistic and Antagonistic Responses of Herbicidal Combinations", Weeds, Volume 15 (1967), pages 20-22 and Colby, "Greenhouse Evaluation of Herbicidal Combinations", Proc. NEWCC, No. 19, pages 312-320. The percent increase over the expected control is calculated as (Actual control)/(Expected Control)x 100 - 100 [formula] Table I An emulsifiable concentrate of fluroxypyr methyl ester (as compound B) was prepared having the following composition. Varying amounts of this emulsifiable concentrate containing 100 g/l Fluroxypyr methyl ester (as acid equivalent) were added to a suspension concentrate of compound A prepared as in Example I, to provide the desired concentration of Compound B. The resulting formulation was tested against the following weeds, at the growth stage indicated, by the method described above. [table] In each case, the composition was applied ata rate of 200 litres per hectare. The percent of control was assessed by visual percent control (tables VIII to XII) and also by measurement of fresh weight (tables XIII to XVII).

Veronica persica = experiment: Weed control, visual percent control (Example IV)
Description: as §1

Viola arvensis [2] = experiment: Weed control, visual percent control (Example IV)
Description: as §1

Galium aparine = experiment: Weed control, visual percent control (Example IV)
Description: as §1

Matricaria inodora = experiment: Post-emergent weed control by reduction in fresh weight (Examples V, VI and VII)
Description: (§2) In all Examples, the percent kill and control is measured on a scale of 0 percent = no kill and control 100 percent = complete kill and control. Expected control is calculated as 100 -((% control by Compound A) x (% control by Compound B))/(100) [formula] where % control= 100-actual control according to the technique described in Colby, "Calculating Synergistic and Antagonistic Responses of Herbicidal Combinations", Weeds, Volume 15 (1967), pages 20-22 and Colby, "Greenhouse Evaluation of Herbicidal Combinations", Proc. NEWCC, No. 19, pages 312-320. The percent increase over the expected control is calculated as (Actual control)/(Expected Control)x 100 - 100 [formula] Table I A 20% w/w suspension concentrate of fluroxypyr acid in water was prepared by wet milling the ingredients shown in Table XVIII until a particle size distribution with a volume median diameter of about 2µm was obtained. Varying amounts of the resulting suspension concentrate were added to water to provide the desired concentration of fluroxypyr acid. […] Varying amounts of the resulting solutions were further diluted with water to provide the desired concentration of the fluroxypyr salt. Similarly, varying amounts of the suspension concentrate of compound A prepared as in Example 1 were added, to provide the desired concentration of compound A. The formulations resulting from Examples V, VI and VII were evaluated to determine their effectiveness in the post-emergent control of the weeds Viola arvensis, Galium aparine, and Matricaria inodora.

Viola arvensis [3] = experiment: as above
Description: as §2

Fumaria officinalis [4] = experiment: Postemergent weed control, greenhouse (Example I)
Description: (§3) In all Examples, the percent kill and control is measured on a scale of 0 percent = no kill and control 100 percent = complete kill and control. Representative compositions of the present invention were evaluated to determine their effectiveness in synergistic postemergent weed control operations. Suspension emulsions containing varying concentrations of the methylheptyl ester of ((4-amino-3,5-dichloro-6-fluoro-2-pyridinyl)oxy)-acetic acid (Compound B) and N-(2,6-dichloro-3-methylphenyl)-5,7-dimethoxy-1,2,4,-triazolo(1,5a)pyrimidine-2-sulfonamide (Compound A), were prepared as follows: A 250 g per litre suspension concentrate of Compound A was prepared by wet-milling the following ingredients, until a particle size distribution with a volume median diameter of about 2μm was obtained. Varying amounts of the resulting suspension concentrate were added to water to provide the desired concentration of Compound A. Similarly, varying amounts of a commercially available emulsifiable concentrate containing 200 g/l (as acid equivalent) of fluroxypyr 1 methylheptyl ester (Trade Mark […]-2) were added, to provide the desired concentration of Compound B. In each of the tests which follow, the composition was applied at a rate of 200 litres per hectare. Accordingly, in each case, the amount of water to which the suspension concentrate of Compound A and the emulsifiable concentrate of Compound B was added was sufficient to provide the desired application rates, when the resulting composition was used at this application rate. Seeds of the weed species Bilderdykia convolvulus, Viola arvensis, Lamium purpureum, Chenopodium album and Fumaria officinalis, and seeds of the crop plant winter wheat variety Avalon, were planted in beds of good agricultural soil and grown in a greenhouse. […] The results are shown in Tables I to V. In the tables which follow, those runs which include only one but not both of Compound A and Compound B are included as controls. Expected control is calculated as 100 -((% control by Compound A) x (% control by Compound B))/(100) [formula] where % control= 100-actual control according to the technique described in Colby, "Calculating Synergistic and Antagonistic Responses of Herbicidal Combinations", Weeds, Volume 15 (1967), pages 20-22 and Colby, "Greenhouse Evaluation of Herbicidal Combinations", Proc. NEWCC, No. 19, pages 312-320. The percent increase over the expected control is calculated as (Actual control)/(Expected Control)x 100 - 100 [formula]

Lamium purpureum [5] = experiment: Postemergent weed control, greenhouse (Example I)
Description: as §3

Viola arvensis [6] = experiment: Postemergent weed control, greenhouse (Example I)
Description: as §3

Bilderdykia convolvulus = experiment: Postemergent weed control, greenhouse (Example I)
Description: as §3

Chenopodium album = experiment: Postemergent weed control, greenhouse (Example I)
Description: as §3

Fumaria officinalis [7] = experiment: Postemergent weed control, field trials (Example II)
Description: In all Examples, the percent kill and control is measured on a scale of 0 percent = no kill and control 100 percent = complete kill and control. Expected control is calculated as 100 -((% control by Compound A) x (% control by Compound B))/(100) [formula] where % control= 100-actual control according to the technique described in Colby, "Calculating Synergistic and Antagonistic Responses of Herbicidal Combinations", Weeds, Volume 15 (1967), pages 20-22 and Colby, "Greenhouse Evaluation of Herbicidal Combinations", Proc. NEWCC, No. 19, pages 312-320. The percent increase over the expected control is calculated as (Actual control)/(Expected Control)x 100 - 100 [formula] Table I A number of compositions in accordance with the present invention were prepared as in Example I and evaluated in field trials to determine their effectiveness in the postemergent control of the weed Fumaria officinalis growing in the presence of spring barley of the variety Triumph. Seeds of the plants spring barley of the variety Triumph and the weed specie Fumaria officinalis were planted in plots 6 meters x 3 meters composed of calcareous clay loam soil. Two months after planting, the plants were sprayed at a rate of 200 litre/hectare with one of the compositions having an active material control such as to give treatment rates shown in Table VI. […]

SMILES: COc1cc(OC)n2nc(S(=O)(=O)Nc3c(Cl)ccc(C)c3Cl)nc2n1 [Cmpd A, N-(2,6-dichloro-3-methylphenyl)-5,7-dimethoxy-1,2,4,-triazolo(1,5a)pyrimidine-2-sulfonamide]
- Actual Reduction (%) 19 days after treatment (Lamium purpureum [1]; Cmpd A 3.125 g/ha): 4%
- Actual Reduction (%) 19 days after treatment (Lamium purpureum [1]; Cmpd A 6.25 g/ha): 0%
- Actual Reduction (%) 19 days after treatment (Lamium purpureum [1]; Cmpd A 12.5 g/ha): 19%
- Actual Reduction (%) 19 days after treatment (Lamium purpureum [1]; Cmpd A 25.0 g/ha): 11%
- Actual Control (%) 19 days after treatment (Veronica persica; Cmpd A 3.125 g/ha alone): 10%
- Actual Control (%) 19 days after treatment (Veronica persica; Cmpd A 6.25 g/ha alone): 20%
- Actual Control (%) 19 days after treatment (Veronica persica; Cmpd A 12.5 g/ha alone): 28%
- Actual Control (%) 19 days after treatment (Veronica persica; Cmpd A 25.0 g/ha alone): 30%
- Actual Control (%) 19 days after treatment (Viola arvensis [2]; Cmpd A 3.125 g/ha alone): 22%
- Actual Control (%) 19 days after treatment (Viola arvensis [2]; Cmpd A 6.25 g/ha alone): 12%
- Actual Control (%) 19 days after treatment (Viola arvensis [2]; Cmpd A 12.5 g/ha alone): 55%
- Actual Control (%) 19 days after treatment (Viola arvensis [2]; Cmpd A 25.0 g/ha alone): 72%
- Actual Control (%) 19 days after treatment (Galium aparine; Cmpd A 3.125 g/ha alone): 0%
- Actual Control (%) 19 days after treatment (Galium aparine; Cmpd A 6.25 g/ha alone): 0%
- Actual Control (%) 19 days after treatment (Galium aparine; Cmpd A 12.5 g/ha alone): 0%
- Actual Control (%) 19 days after treatment (Galium aparine; Cmpd A 25.0 g/ha alone): 0%
- Actual Control (%) 17 days after treatment (Matricaria inodora; Cmpd A 6.25 g/ha): 7%
- Actual Control (%) 17 days after treatment (Matricaria inodora; Cmpd A 12.50 g/ha): 32%
- Actual Control (%) 17 days after treatment (Matricaria inodora; Cmpd A 25.00 g/ha): 75%
- Actual Control (%) 17 days after treatment (Matricaria inodora; Cmpd A 50.00 g/ha): 72%
- Actual Control (%) 23 days after treatment (Viola arvensis [3]; Cmpd A 6.25 g/ha): 20%
- Actual Control (%) 23 days after treatment (Viola arvensis [3]; Cmpd A 6.25 g/ha, Table XX): 20%
- Actual Control (%) 23 days after treatment (Viola arvensis [3]; Cmpd A 12.50 g/ha): 50%
- Actual Control (%) 23 days after treatment (Viola arvensis [3]; Cmpd A 12.50 g/ha, Table XX): 50%
- Actual Control (%) 23 days after treatment (Viola arvensis [3]; Cmpd A 25.00 g/ha): 52%
- Actual Control (%) 23 days after treatment (Viola arvensis [3]; Cmpd A 25.00 g/ha, Table XX): 52%
- Actual Control (%) 23 days after treatment (Viola arvensis [3]; Cmpd A 50.00 g/ha): 60%
- Actual Control (%) 23 days after treatment (Viola arvensis [3]; Cmpd A 50.00 g/ha, Table XX): 60%
- Actual Control 19 days after treatment (%) (Fumaria officinalis [4]; Cmpd A 3.125 g/ha alone): 5%
- Actual Control 19 days after treatment (%) (Fumaria officinalis [4]; Cmpd A 6.25 g/ha alone): 18%
- Actual Control 19 days after treatment (%) (Fumaria officinalis [4]; Cmpd A 12.50 g/ha alone): 0%
- Actual Control 19 days after treatment (%) (Fumaria officinalis [4]; Cmpd A 25.00 g/ha alone): 18%
- Actual Control (%) 12 days after treatment (Lamium purpureum [5]; Cmpd A 6.25 g/ha alone): 18%
- Actual Control (%) 12 days after treatment (Lamium purpureum [5]; Cmpd A 12.50 g/ha alone): 24%
- Actual Control (%) 12 days after treatment (Lamium purpureum [5]; Cmpd A 25.00 g/ha alone): 25%
- Actual Control (%) 12 days after treatment (Lamium purpureum [5]; Cmpd A 50.00 g/ha alone): 23%
- Actual Control (%) 17 days after treatment (Viola arvensis [6]; Cmpd A 6.25 g/ha alone): 15%
- Actual Control (%) 17 days after treatment (Viola arvensis [6]; Cmpd A 12.50 g/ha alone): 36%
- Actual Control (%) 17 days after treatment (Viola arvensis [6]; Cmpd A 25.00 g/ha alone): 39%
- Actual Control (%) 17 days after treatment (Viola arvensis [6]; Cmpd A 50.00 g/ha alone): 50%
- Actual Control (%) 32 days after treatment (Bilderdykia convolvulus; Cmpd A 6.25 g/ha alone): 0%
- Actual Control (%) 32 days after treatment (Bilderdykia convolvulus; Cmpd A 12.50 g/ha alone): 45%
- Actual Control (%) 32 days after treatment (Bilderdykia convolvulus; Cmpd A 25.00 g/ha alone): 30%
- Actual Control (%) 32 days after treatment (Bilderdykia convolvulus; Cmpd A 50.00 g/ha alone): 53%
- Actual Control 19 days after treatment (%) (Chenopodium album; Cmpd A 3.125 g/ha alone): 47%
- Actual Control 19 days after treatment (%) (Chenopodium album; Cmpd A 6.25 g/ha alone): 60%
- Actual Control 19 days after treatment (%) (Chenopodium album; Cmpd A 12.50 g/ha alone): 55%
- Actual Control 19 days after treatment (%) (Chenopodium album; Cmpd A 25.00 g/ha alone): 60%
- Actual Control 28 days after treatment (%) (Fumaria officinalis [7]; Cmpd A 10.0 g/ha alone): 0.0%
- Actual Control 28 days after treatment (%) (Fumaria officinalis [7]; Cmpd A 20.0 g/ha alone): 15.0%
